SMILES strings stand for the structures. In brackets after ≈: the same amount, converted by molar mass.

The assay relates to HIV-1 (RF). The assay is described as follows: HIV RNA assay: microplate based compound evaluation in HIV-1 infected MT-2 cells. The conditions noted are these: Human immunodeficiency virus 1, MT2, 72 h; HIV-1 (RF) infected MT-2 cells, 3 days culture; value used to standardize the virus inoculum; read-out: IC90 (concentration of compound required to reduce the HIV RNA level by 90%). It counts as cell-based. Here is the method: Plasmid PDAB 72 containing both gag and pol sequences of BH10 (bp 113-1816) cloned into PTZ 19R was prepared according to Erickson-Vitanen et al. AIDS Research and Human Retroviruses 1989, 5, 577. The plasmid was linearized with Bam HI prior to the generation of in vitro RNA transcripts using the Riboprobe Gemini system II kit (Promega) with T7 RNA polymerase. Synthesized RNA was purified by treatment with RNase free DNAse (Promega), phenol-chloroform extraction, and ethanol precipitation. RNA transcripts were dissolved in water, and stored at −70EC. The concentration of RNA was determined from the A260.
Biotinylated capture probes were purified by HPLC after synthesis on an Applied Biosystems (Foster city, Calif.) DNA synthesizer by addition of biotin to the 5N terminal end of the oligonucleotide, using the biotin-phosphoramidite reagent of Cocuzza, Tet. Lett. 1989, 30, 6287. […]
MT-2 and MT-4 cells were maintained in RPMI 1640 supplemented with 5% fetal calf serum (FCS) for MT-2 cells or 10% FCS for MT-4 cells, 2 mM L-glutamine and 50 μg/mL gentamycin, all from Gibco. […] Infectious titers of HIV-1 (RF) stocks were 1-3×10^7 PFU (plaque forming units)/mL as measured by plaque assay on MT-2 cells (see below). […]

As to `Nc1ccn([C@H]2CC[C@@H](CO)O2)c(=O)n1` [ddC, dideoxycytidine], the IC90 stood at 0.2 µg/mL (≈ 0.947 µM).

For the origin of these results see patent US6943170B2, “N-cycloalkylglycines as HIV protease inhibitors” (Bristol-Myers Squibb Company, priority 2002, dated 2005).
